Experimental findings from patent US10253024B2, “Polycyclic indoline and indolenine compounds” (The Regents of the University of Colorado, a body corporate, priority 2015, dated 2019) are described below.

What all share (type): cell-based, S. aureus
For experiment [1], the system named is BAA-44, NRS-100, NRS-384, NR-46414 and NR-46421. In words: MIC of 11b on its own in a variety of MRSA and VRSA strains. Conditions: all strains tested. How it is done: (§1) The minimum re-sensitizing concentrations (MRCS) of 11b to re-sensitize a variety of MRSA strains to β-lactam antibiotics, amox/clav and cefazolin was also evaluated.
The minimal inhibitory concentrations (MICS) of antimicrobial compounds and 11b were determined by the broth microdilution method detailed in the Clinical and Laboratory Standards Institute (CLSI) handbook. All antimicrobial compounds were purchased from Sigma-Aldrich. The growth media used for all MIC experiments was Mueller Hinton Broth (MHB) purchased from HIMEDIA through VWR (cat: 95039-356). The inoculum was prepared by diluting a bacterial day culture (OD600 0.15-0.4) to OD600 0.002. This dilution was further diluted two fold when added to 96 well microplates (USA Scientific CytoOne 96-well TC plate, cat: CC7682-7596) for a final inoculum concentration of OD600 0.001. All plates were incubated at 37° C. with shaking for 18 hours before results were interpreted.

Experiment [2] has the same test system. As to the kind of experiment: MRC of 11b for amox/clav and cefazolin in a variety of MRSA and VRSA strains. Conditions: all strains tested. How it is done:
as §1
Antibiotic MIC values where S. aureus is considered susceptible were determined from the CLSI handbook. MHB was supplemented with the antimicrobial at a concentration two fold greater than the CLSI susceptible MIC value. Two-fold serial dilutions of 11b were prepared in antibiotic supplemented media in 96-well microplates. These were inoculated with MRSA diluted to OD600 0.002 and incubated at 37° C. with shaking for 18 hours before results were interpreted. The concentration of 11b in antibiotic supplemented media at which there was no observable growth was considered the minimum resensitizing concentration (MRC). For amoxicillin/clavulanic acid, the initial concentration was 8/4 μg/mL; for cefazolin, 16 μg/mL. A 50 μL portion of the antibiotic containing media was added to each well of 96-well plates, and 100 μL was added to the top row. A 1.28 μL portion of 5 mg/mL 11b was added to the top row of each plate to afford a concentration of 64 μg/mL in the top row of each plate, and 2-fold serial dilutions were performed down the columns. […] The MRC value was determined as the concentration of 11b in the presence of antibiotic at which there was no observable overnight growth.

The test system of the next experiment is MRSA strain ATCC BAA-44. In words: Checkerboard MIC study of 11b and methicillin (FICI). The settings on record: 11b with methicillin, ≤0.5 indicates synergy. How it is done: Tetracyclic indolenine compounds were then evaluated in a series of bacterial whole-cell assays. Compound 11b potentiated the activity of methicillin in a multi-drug resistant MRSA strain, ATCC BAA-44. To assess the degree of synergy between 11b and methicillin, a checkerboard minimum inhibitory concentration (MIC) study was performed.

In the case of `C=C1CCC2C3=Nc4ccccc4C13CCN2C(=O)c1ccc(Cl)cc1` (stereo not drawn) [Compound 11b, 11-[(4-Chlorophenyl)carbonyl]-14-methylidene-8,11-diazatetracyclo[8.3.3.0^1,9.0^2.7]hexadeca-2(7),3,5,8-tetraene], the MICs in experiment [1] lay within 32 to 64 µg/mL. The MRCs in experiment [2] lay within 0.25 to 2 µg/mL. Also, the “Fractional Inhibitory Concentration Index (FICI)” value in the experiment on MRSA strain ATCC BAA-44 is given as 0.039.
